Results as given in US20240317744A1, “Bicyclic Ureas As Kinase Inhibitors” (Incyte Corporation, priority 2023, published 2024).

Columns and labels:
[1] = biological target: T1, catalytic domain (JH1, amino acids 826-1132) of human JAK2 (Homo sapiens, UniProt O60674); assay: JAK2 LanthaScreen JH1 Binding Assay; conditions: JAK2 JH1 1.5 nM, 50 nM tracer, 2 hours at 25° C.; read-out: JH1 BIND
T1 construct: catalytic domain (JH1, amino acids 826-1132) of human JAK2; FLAG (N); biotin (biotinylated); purchased Carna Biosciences 08-445-20N; host or cells: baculovirus expression system
Summary of the method: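 FLAG-tagged, biotinylated JAK2 JH1 (aa 826-1132, baculovirus-expressed; 1.5 nM) incubated 2 h at 25° C with compounds, 50 nM fluorescent tracer and 0.5 nM Streptavidin-Tb in Tris pH 7.5 buffer with MgCl2, Brij-35, BSA, EGTA, glycerol, DTT. Nonspecific binding defined with 2 mM ATP; TR-FRET IC50 from four-parameter fit.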

[2] = biological target: T2, pseudo-kinase domain (JH2, amino-acids 536-812) of human V617F mutant JAK2 (Homo sapiens, UniProt O60674, F794H/V617F/W659A/W777A); assay: JAK2 LanthaScreen JH2-V617F Binding Assay; conditions: JAK2 JH2-V617F 0.26 nM, 50 nM tracer, 1 hour at 25° C.; read-out: JH2 BIND V617F
T2 construct: pseudo-kinase domain (JH2, amino-acids 536-812 with 3 surface mutations W659A, W777A, F794H); His (C); purchased BPS Bioscience 79498; host or cells: baculovirus expression system
Summary of the method: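 Biotinylated His-Avi-tagged construct, baculovirus-expressed, at 0.26 nM; compounds competed against 50 nM fluorescent JH2 tracer with 0.25 nM streptavidin-Tb in Tris pH 7.5 buffer. Non-specific binding defined with 2 mM ATP. Read after 1 h at 25° C by TR-FRET; IC50 from four-parameter fit.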

[3] = biological target: catalytic domain (JH1, amino acids 808-1132) of human JAK2 (Homo sapiens, UniProt O60674); assay: JAK2 HTRF Enzyme Activity Assay; format: biochemical; conditions: ATP 30 µM, 60 minutes at 25° C.; read-out: V617F ENZ 30 UM
[4] = biological target: T3, pseudo-kinase domain (JH2, amino-acids 536-812) of human Wild Type JAK2 (Homo sapiens, UniProt O60674, F794H/W659A/W777A); assay: JAK2 LanthaScreen JH2-WT Binding Assay; conditions: JAK2 JH2-WT 0.145 nM, 50 nM tracer, 1 hour at 25° C.; read-out: JH2 BIND WT
T3 construct: pseudo-kinase domain (JH2, amino-acids 536-812 with 3 surface mutations W659A, W777A, F794H); His (C); purchased BPS Bioscience 79463; host or cells: baculovirus expression system
Summary of the method: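 TR-FRET tracer displacement: IC50 from four-parameter dose-response fit. Reaction: compound, 0.145 nM biotinylated JH2 protein from baculovirus, 0.25 nM streptavidin-Tb and 50 nM tracer, 1 h at 25° C, 50 mM Tris pH 7.5 buffer. 2 mM ATP gave non-specific binding.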

T1 sequence (O60674 826-1132): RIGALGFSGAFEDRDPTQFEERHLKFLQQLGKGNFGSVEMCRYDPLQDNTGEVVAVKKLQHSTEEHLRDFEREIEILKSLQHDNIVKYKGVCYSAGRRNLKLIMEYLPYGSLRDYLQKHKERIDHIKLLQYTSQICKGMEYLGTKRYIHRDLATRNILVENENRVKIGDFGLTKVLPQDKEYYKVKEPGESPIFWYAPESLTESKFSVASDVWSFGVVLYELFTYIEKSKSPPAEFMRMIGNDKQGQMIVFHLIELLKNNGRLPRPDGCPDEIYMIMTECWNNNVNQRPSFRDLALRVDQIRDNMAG
Chain of catalytic domain (JH1, amino acids 808-1132) of human JAK2 (O60674 808-1132 limits assumed): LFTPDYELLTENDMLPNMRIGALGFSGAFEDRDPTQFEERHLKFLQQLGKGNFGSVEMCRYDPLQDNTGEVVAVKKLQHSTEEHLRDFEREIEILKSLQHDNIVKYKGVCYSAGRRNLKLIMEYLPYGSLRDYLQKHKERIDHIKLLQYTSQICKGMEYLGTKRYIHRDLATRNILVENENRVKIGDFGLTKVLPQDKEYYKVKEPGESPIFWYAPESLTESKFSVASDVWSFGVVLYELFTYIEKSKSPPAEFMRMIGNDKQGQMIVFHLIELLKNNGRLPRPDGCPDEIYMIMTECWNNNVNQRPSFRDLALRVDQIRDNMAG
T2 sequence (O60674 536-812 V617F/W659A/W777A/F794H): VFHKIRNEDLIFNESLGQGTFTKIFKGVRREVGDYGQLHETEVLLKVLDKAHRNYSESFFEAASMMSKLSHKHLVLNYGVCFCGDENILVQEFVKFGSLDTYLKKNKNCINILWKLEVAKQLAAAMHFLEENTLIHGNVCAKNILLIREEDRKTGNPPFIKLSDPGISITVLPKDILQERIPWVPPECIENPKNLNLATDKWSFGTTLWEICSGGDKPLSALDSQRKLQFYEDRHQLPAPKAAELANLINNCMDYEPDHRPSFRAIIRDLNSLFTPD
T3 sequence (O60674 536-812 W659A/W777A/F794H): as the sequence (O60674 536-812 V617F/W659A/W777A/F794H) above, with F82V counted along it

Structure (SMILES) | IC50 [1] [nM] | IC50 [2] [nM] | IC50 [3] [nM] | IC50 [4] [nM]
COC(=O)N[C@@H]1CC[C@@H](n2c(=O)n(C)c3cnc(Nc4ccc5ncc(-c6cnn(C)c6)n5n4)cc32)C1 [Example 34, Methyl ((1R,3R)-3-(3-methyl-6-((3-(1-methyl-1H-pyrazol-4-yl)imidazo[1,2-b]pyridazin-6-yl)amino)-2-oxo-2,3-dihydro-1H-imidazo[4,5-c]pyridin-1-yl)cyclopentyl)carbamate] | > 1000 | ≤ 10 | > 1000 | ≤ 10
COC(=O)N[C@@H]1CC[C@@H](n2c(=O)n(C)c3cnc(Nc4ccn5nc(-c6cnn(C)c6)cc5n4)cc32)C1 [Example 35, Methyl ((1R,3R)-3-(3-methyl-6-((2-(1-methyl-1H-pyrazol-4-yl)pyrazolo[1,5-a]pyrimidin-5-yl)amino)-2-oxo-2,3-dihydro-1H-imidazo[4,5-c]pyridin-1-yl)cyclopentyl)carbamate] | > 1000 | 10 to 100 | > 1000 | 10 to 100
COC(=O)N[C@@H]1CC[C@@H](n2c(=O)n(C)c3cnc(Nc4ccn5ncc(-c6cnn(C)c6)c5n4)cc32)C1 [Example 36, Methyl ((1R,3R)-3-(3-methyl-6-((3-(1-methyl-1H-pyrazol-4-yl)pyrazolo[1,5-a]pyrimidin-5-yl)amino)-2-oxo-2,3-dihydro-1H-imidazo[4,5-c]pyridin-1-yl)cyclopentyl)carbamate] | > 1000 | 10 to 100 | > 1000 | ≤ 10
COC(=O)N[C@@H]1CC[C@@H](n2c(=O)n(C)c3cnc(Nc4cccc(OC5CCOCC5)n4)cc32)C1 [Example 37, Methyl ((1R,3R)-3-(3-methyl-2-oxo-6-((6-((tetrahydro-2H-pyran-4-yl)oxy)pyridin-2-yl)amino)-2,3-dihydro-1H-imidazo[4,5-c]pyridin-1-yl)cyclopentyl)carbamate] | > 1000 | 10 to 100 | > 1000 | ≤ 10
COC(=O)N[C@@H]1CC[C@@H](n2c(=O)n(C)c3cnc(Nc4ccc5ncc(-c6cncn6C)n5n4)cc32)C1 [Example 38, Methyl ((1R,3R)-3-(3-methyl-6-((3-(1-methyl-1H-imidazol-5-yl)imidazo[1,2-b]pyridazin-6-yl)amino)-2-oxo-2,3-dihydro-1H-imidazo[4,5-c]pyridin-1-yl)cyclopentyl)carbamate] | > 1000 | 10 to 100 | > 1000 | ≤ 10
COC(=O)Nc1cc(Nc2cc3c(cn2)n(C)c(=O)n3C2[C@H]3CN(C(=O)OC)C[C@@H]23)cc(-c2cnn(C)c2)c1 (stereo partly drawn) [Example 39, Methyl (1R,5S)-6-(6-((3-((methoxycarbonyl)amino)-5-(1-methyl-1H-pyrazol-4-yl)phenyl)amino)-3-methyl-2-oxo-2,3-dihydro-1H-imidazo[4,5-c]pyridin-1-yl)-3-azabicyclo[3.1.0]hexane-3-carboxylate] | > 1000 | 100 to 500 | > 1000 | 100 to 500
COC(=O)Nc1cc(Nc2cc3c(cn2)n(C)c(=O)n3C2CC3CC2CN3C(C)=O)cc(-c2cnn(C)c2)c1 (stereo not shown) [Example 40, Methyl (3-((1-(2-acetyl-2-azabicyclo[2.2.1]heptan-5-yl)-3-methyl-2-oxo-2,3-dihydro-1H-imidazo[4,5-c]pyridin-6-yl)amino)-5-(1-methyl-1H-pyrazol-4-yl)phenyl)carbamate] | > 1000 | 10 to 100 | > 1000 | 10 to 100
COC(=O)N[C@@H]1CC[C@@H](n2c(=O)n(C)c3cnc(Nc4cc(NS(=O)(=O)C5CC(F)(F)C5)cc(C5CCOCC5)c4)cc32)C1 [Example 41, Methyl ((1R,3R)-3-(6-((3-((3,3-difluorocyclobutane)-1-sulfonamido)-5-(tetrahydro-2H-pyran-4-yl)phenyl)amino)-3-methyl-2-oxo-2,3-dihydro-1H-imidazo[4,5-c]pyridin-1-yl)cyclopentyl)carbamate] | > 1000 | 10 to 100 | > 1000 | 10 to 100
COC(=O)Nc1cc(Nc2cc3c(cn2)n(C)c(=O)n3C2CCC(C)(NC(=O)OC)CC2)cc(-c2cnn(C)c2)c1 (stereo not shown) [Example 42, Methyl (3-((1-(4-((methoxycarbonyl)amino)-4-methylcyclohexyl)-3-methyl-2-oxo-2,3-dihydro-1H-imidazo[4,5-c]pyridin-6-yl)amino)-5-(1-methyl-1H-pyrazol-4-yl)phenyl)carbamate] | > 1000 | 10 to 100 | > 1000 | 10 to 100
COCCOC(=O)N[C@@H]1CC[C@@H](n2c(=O)n(C)c3cnc(Nc4cc(NC(=O)OC5CCC5)cc(-c5cnn(C)c5)c4)cc32)C1 [Example 43, 2-Methoxyethyl ((1R,3R)-3-(6-((3-((cyclobutoxycarbonyl)amino)-5-(1-methyl-1H-pyrazol-4-yl)phenyl)amino)-3-methyl-2-oxo-2,3-dihydro-1H-imidazo[4,5-c]pyridin-1-yl)cyclopentyl)carbamate] | > 1000 | 10 to 100 | > 1000 | 10 to 100
COC(=O)N[C@@H]1CC[C@@H](n2c(=O)n(C)c3cnc(Nc4cc(NC(=O)OC5CCC5)cc(C5CCOCC5)c4)cc32)C1 [Example 44, Methyl ((1R,3R)-3-(6-((3-((cyclobutoxycarbonyl)amino)-5-(tetrahydro-2H-pyran-4-yl)phenyl)amino)-3-methyl-2-oxo-2,3-dihydro-1H-imidazo[4,5-c]pyridin-1-yl)cyclopentyl)carbamate] | > 1000 | > 1000 | > 1000 | > 1000
Cn1cc(-c2cc(NC(=O)OC3CCC3)cc(Nc3cc4c(cn3)n(C)c(=O)n4[C@@H]3CC[C@@H](NC(=O)OC4CCC4)C3)c2)cn1 [Example 45, Cyclobutyl ((1R,3R)-3-(6-((3-((cyclobutoxycarbonyl)amino)-5-(1-methyl-1H-pyrazol-4-yl)phenyl)amino)-3-methyl-2-oxo-2,3-dihydro-1H-imidazo[4,5-c]pyridin-1-yl)cyclopentyl)carbamate] | > 1000 | 10 to 100 | > 1000 | 10 to 100
CCOC(=O)N[C@@H]1CC[C@@H](n2c(=O)n(C)c3cnc(Nc4cc(NC(=O)OC5CCC5)cc(-c5cnn(C)c5)c4)cc32)C1 [Example 46, Ethyl ((1R,3R)-3-(6-((3-((cyclobutoxycarbonyl)amino)-5-(1-methyl-1H-pyrazol-4-yl)phenyl)amino)-3-methyl-2-oxo-2,3-dihydro-1H-imidazo[4,5-c]pyridin-1-yl)cyclopentyl)carbamate] | > 1000 | 10 to 100 | > 1000 | 10 to 100
C#CCOC(=O)N[C@@H]1CC[C@@H](n2c(=O)n(C)c3cnc(Nc4cc(NC(=O)OC5CCC5)cc(-c5cnn(C)c5)c4)cc32)C1 [Example 47, Prop-2-yn-1-yl ((1R,3R)-3-(6-((3-((cyclobutoxycarbonyl)amino)-5-(1-methyl-1H-pyrazol-4-yl)phenyl)amino)-3-methyl-2-oxo-2,3-dihydro-1H-imidazo[4,5-c)pyridin-1-yl)cyclopentyl)carbamate] | > 1000 | ≤ 10 | > 1000 | ≤ 10
Cn1cc(-c2cc(NC(=O)OC3CCC3)cc(Nc3cc4c(cn3)n(C)c(=O)n4[C@@H]3CC[C@@H](NC(=O)OC4CCOCC4)C3)c2)cn1 [Example 48, Tetrahydro-2H-pyran-4-yl ((1R,3R)-3-(6-((3-((cyclobutoxycarbonyl)amino)-5-(1-methyl-1H-pyrazol-4-yl)phenyl)amino)-3-methyl-2-oxo-2,3-dihydro-1H-imidazo[4,5-c]pyridin-1-yl)cyclopentyl)carbamate] | > 1000 | 10 to 100 | > 1000 | 10 to 100
Cn1cc(-c2cc(NC(=O)OC3CCC3)cc(Nc3cc4c(cn3)n(C)c(=O)n4[C@@H]3CC[C@@H](NC(=O)Oc4ccc(F)cc4)C3)c2)cn1 [Example 49, 4-Fluorophenyl ((1R,3R)-3-(6-((3-((cyclobutoxycarbonyl)amino)-5-(1-methyl-1H-pyrazol-4-yl)phenyl)amino)-3-methyl-2-oxo-2,3-dihydro-1H-imidazo[4,5-c]pyridin-1-yl)cyclopentyl)carbamate] | > 1000 | ≤ 10 | > 1000 | ≤ 10
